Key:
[1] = tested on: NHK-young (keratinocytes from young individuals); assay: Cell adhesion of NHK-young to immobilized peptide; format: cell-based, human
Experimental: Dose-dependent cell adhesion of NHK-10 years versus NHK-71 years (A) and NHK-11 years versus NHK-60 years (B) peptides TALRIRATYHEY. The peptides were immobilized in 96-well plates at the concentrations given on the abscissa. 3.5×10^4 (A) cells and 4.3×10^4 (B) cells were deposited in each well and plates were incubated at 37° C. for 1 hour. After washing, attached cells were fixed and cell adhesion was measured as described in the methodology section (C). Cells were observed by phase contrast microscopy then photographed. Bar=50 μm.
In order to obtain keratinocytes originating from biopsies taken from young and old individuals and taken from the same anatomical site, the inventors conducted a study of facial skin biopsies. The area of the face situated behind the ears was chosen in order to study only intrinsic aging and to overcome the effects of photo-induced aging. Surgery waste from cosmetic surgery (face lifts) in older individuals and surgery waste from detached ears in young children was collected. It is essential to use biopsies collected on the same day as surgery was performed in order to quickly place the epidermal keratinocytes in culture. Cells from biopsies on elderly individuals (60, 63 and 71 years) and young individuals (8, 10 and 11 years) were used for this study. The keratinocytes were obtained by means of the technique described by Boyce and Ham, 1985. After careful washing in PBS buffer containing antibiotics, fatty tissue located under the dermis was removed from the skin fragments using sterile instruments. Skin was then cut into 3 mm^2 sections which were placed in a sterile solution of 0.25% trypsin in PBS for 16 hours at 4° C. Dermis/epidermis separation was performed using tweezers in a Petri dish containing culture medium in order to stop the enzyme action of trypsin. Epidermal fragments were then aspirated and blown out several times using a pipette in order to detach free basal cells. […]

[2] = tested on: NHK-old; assay: Cell proliferation test (XTT), NHK-old; format: cell-based, human; conditions: peptide 0.05% and 0.1%, 5th hour
Experimental: NHK-10 years and NHK-71 years were seeded in 96-well plates at a rate of 10,000 cells per well. After 24 hours, the culture medium was removed and replaced with serum-free medium containing the peptide quantities given in the graphs and reagent XTT. The plates were then placed in the incubator at 37° C. and absorbance readings were taken at 1 h, 2 h, 3 h, 4 h and 5 h. Peptide-free controls were carried out on the same plate.
The effect of the peptide on cell proliferation was analysed with the aid of a calorimetric test (Cell Proliferation Kit XTT, Roche Diagnostics, Meylan, France) on the cells use for the cell adhesion test, i.e. HT1080, A431, HBL100 cells and normal human keratinocytes from young and elderly individuals.
The chemical reaction used in the test is based on the production of NADPH by living cells, leading to the reduction of yellow tetrazolium XTT salts to orange formazan salts. Absorbance was measured at 490 nm using an ELISA plate reader. Cells were seeded in 96-well plates at a rate of 10,000 cells per well (6 wells/condition) in KBM-2 culture medium. After 24 hours in culture at 37° C. with 5% CO2, the culture medium was removed and replaced with serum-free medium containing the peptide quantities given in the graphs and the test reagent. The plates were then placed in the incubator at 37° C. and absorbance readings were taken at 1 h, 2 h, 3 h, 4 h and 5 h. […]

TALRIRATYGEY (Human laminin 5) [Peptide 1]
deposited peptide quantity triggering adhesion ([1]; NHK-young): 0.08 µg
cell adhesion to immobilized peptide ([1]; NHK-young, 0 to 5 micrograms per well, 1 hour 37° C.): triggered dose-dependent cell adhesion
number of NHK-young cells attached compared to NHK-old (fold) ([1]; both experiments (10 vs 71 years, 11 vs 60 years), identical cell numbers): ~2
mean increase in proliferation compared to the control [2]: ≤ 7%

Reference: patent publication US7645740B2, “Peptide sequence found in Laminin 5 for treating skin impairments” (Laboratoires d'Anjou Centre National de la Recherche …, priority 2004, dated 2010)
